Measured values reported in ChEMBL document CHEMBL3046473, “Effect on Insecticidal Activity of Substituents at the 1,4-Benzodioxanyl Moiety of Haedoxan” (1992).

Legend:
Musca domestica [1] = experiment: Insecticidal activity against 3-day old Musca domestica (house fly) administered topically measured after 24 hr relative to (+)-haedoxan A; assay type: functional
Musca domestica [2] = experiment: Insecticidal activity against 3-day old Musca domestica (house fly) administered topically measured after 24 hr; assay type: functional

SMILES	Ratio (Musca domestica [1])	LD50 (Musca domestica [2]) [µg]
COc1cc2c(cc1[C@H]1OC[C@]3(O)[C@@H](Oc4c(OC)cccc4OC)OC[C@H]13)OC(COC(C)(C)C)CO2 (mixture of isomers)	0.0003	1
COc1cc2c(cc1[C@H]1OC[C@]3(O)[C@@H](Oc4c(OC)cccc4OC)OC[C@H]13)OC(COCc1ccccc1)CO2 (mixture of isomers)		>10
COc1cc2c(cc1[C@H]1OC[C@]3(O)[C@@H](Oc4c(OC)cccc4OC)OC[C@H]13)OCCO2		>10
COc1cc2c(cc1[C@H]1OC[C@]3(O)[C@@H](Oc4c(OC)cccc4OC)OC[C@H]13)OC(CCl)CO2 (mixture of isomers)	5e-05	5
COc1cc2c(cc1[C@H]1OC[C@]3(O)[C@@H](Oc4c(OC)cccc4OC)OC[C@H]13)OCC(c1ccc3c(c1)OCO3)O2 (mixture of isomers)	0.0003	1
COCC1COc2cc(OC)c([C@H]3OC[C@]4(O)[C@@H](Oc5c(OC)cccc5OC)OC[C@H]34)cc2O1 (mixture of isomers)	0.0003	1
COc1cc2c(cc1[C@H]1OC[C@]3(O)[C@@H](Oc4c(OC)cccc4OC)OC[C@H]13)OC(CO)CO2 (mixture of isomers)		>10
COC[C@H]1Oc2cc([C@H]3OC[C@]4(O)[C@@H](Oc5c(OC)cc6c(c5OC)OCO6)OC[C@H]34)c(OC)cc2O[C@@H]1c1ccc2c(c1)OCO2 [(+)-HAEDOXAN A]		0.00025
